ChEMBL document CHEMBL1148695, “Synthesis and biological activity of nociceptin/orphanin FQ analogues substituted in position 7 or 11 with Calpha,alpha-dialkylated amino acids” (Bioorg Med Chem, 2007)
Several values for one entry are separate records, joined by “and”; a condition that tells them apart may be missing. Equal entries are not always repeated.

Target: Nociceptin receptor (Mus musculus) (UniProt P35377)
Test: (§1) Agonist activity at NOP receptor in Swiss mouse vas deferens assessed as effect on electrically stimulated contractions
Format: functional, tissue-based

Chain of Nociceptin receptor (Mus musculus) (P35377 whole entry): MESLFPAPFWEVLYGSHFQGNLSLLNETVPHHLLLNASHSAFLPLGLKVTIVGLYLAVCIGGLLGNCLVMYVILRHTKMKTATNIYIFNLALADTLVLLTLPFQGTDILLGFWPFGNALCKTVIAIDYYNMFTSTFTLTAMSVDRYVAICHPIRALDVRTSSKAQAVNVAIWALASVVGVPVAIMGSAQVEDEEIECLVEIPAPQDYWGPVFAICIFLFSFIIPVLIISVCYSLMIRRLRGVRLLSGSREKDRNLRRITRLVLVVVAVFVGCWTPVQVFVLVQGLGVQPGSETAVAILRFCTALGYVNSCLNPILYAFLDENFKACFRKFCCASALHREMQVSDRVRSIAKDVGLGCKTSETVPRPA

| Compound | Emax |
| --- | --- |
| CC(C)C[C@H](NC(=O)[C@H](CCCCN)NC(=O)[C@H](CCCNC(=N)N)NC(=O)[C@H](C)NC(=O)[C@H](CO)NC(=O)[C@H](CCCCN)NC(=O)[C@H](CCCNC(=N)N)NC(=O)C1(NC(=O)CNC(=O)[C@@H](NC(=O)[C@H](Cc2ccccc2)NC(=O)CNC(=O)CNC(=O)[C@@H](N)Cc2ccccc2)[C@@H](C)O)CCCC1)C(=O)N[C@@H](C)C(=O)N[C@@H](CC(N)=O)C(=O)N[C@@H](CCC(N)=O)C(N)=O | 98% |
| CC(C)C[C@H](NC(=O)[C@H](CCCCN)NC(=O)[C@H](CCCNC(=N)N)NC(=O)C(C)(CC(C)C)NC(=O)[C@H](CO)NC(=O)[C@H](CCCCN)NC(=O)[C@H](CCCNC(=N)N)NC(=O)[C@H](C)NC(=O)CNC(=O)[C@@H](NC(=O)[C@H](Cc1ccccc1)NC(=O)CNC(=O)CNC(=O)[C@@H](N)Cc1ccccc1)[C@@H](C)O)C(=O)N[C@@H](C)C(=O)N[C@@H](CC(N)=O)C(=O)N[C@@H](CCC(N)=O)C(N)=O (some centres not stated) | 91% |
| CC(C)C[C@H](NC(=O)[C@H](CCCCN)NC(=O)[C@H](CCCNC(=N)N)NC(=O)[C@H](C)NC(=O)[C@H](CO)NC(=O)[C@H](CCCCN)NC(=O)[C@H](CCCNC(=N)N)NC(=O)C(C)(CC(C)C)NC(=O)CNC(=O)[C@@H](NC(=O)[C@H](Cc1ccccc1)NC(=O)CNC(=O)CNC(=O)[C@@H](N)Cc1ccccc1)[C@H](C)O)C(=O)N[C@@H](C)C(=O)N[C@@H](CC(N)=O)C(=O)N[C@@H](CCC(N)=O)C(N)=O (some centres not stated) | 84% and 95% |
| CC[C@](C)(NC(=O)CNC(=O)[C@@H](NC(=O)[C@H](Cc1ccccc1)NC(=O)CNC(=O)CNC(=O)[C@@H](N)Cc1ccccc1)[C@@H](C)O)C(=O)N[C@@H](CCCNC(=N)N)C(=O)N[C@@H](CCCCN)C(=O)N[C@@H](CO)C(=O)N[C@@H](C)C(=O)N[C@@H](CCCNC(=N)N)C(=O)N[C@@H](CCCCN)C(=O)N[C@@H](CC(C)C)C(=O)N[C@@H](C)C(=O)N[C@@H](CC(N)=O)C(=O)N[C@@H](CCC(N)=O)C(N)=O [listing 1 of 3 here] | 91% and 88% |
| CCC(C)(NC(=O)[C@H](CO)NC(=O)[C@H](CCCCN)NC(=O)[C@H](CCCNC(=N)N)NC(=O)[C@H](C)NC(=O)CNC(=O)[C@@H](NC(=O)[C@H](Cc1ccccc1)NC(=O)CNC(=O)CNC(=O)[C@@H](N)Cc1ccccc1)[C@@H](C)O)C(=O)N[C@@H](CCCNC(=N)N)C(=O)N[C@@H](CCCCN)C(=O)N[C@@H](CC(C)C)C(=O)N[C@@H](C)C(=O)N[C@@H](CC(N)=O)C(=O)N[C@@H](CCC(N)=O)C(N)=O (some centres not stated) | 90% |
| CC(C)C[C@H](NC(=O)[C@H](CCCCN)NC(=O)[C@H](CCCNC(=N)N)NC(=O)[C@H](C)NC(=O)[C@H](CO)NC(=O)[C@H](CCCCN)NC(=O)[C@H](CCCNC(=N)N)NC(=O)C(C)(NC(=O)CNC(=O)[C@@H](NC(=O)[C@H](Cc1ccccc1)NC(=O)CNC(=O)CNC(=O)[C@@H](N)Cc1ccccc1)[C@H](C)O)C(C)C)C(=O)N[C@@H](C)C(=O)N[C@@H](CC(N)=O)C(=O)N[C@@H](CCC(N)=O)C(N)=O (some centres not stated) | 88% and 95% |
| CC(C)C[C@H](NC(=O)[C@H](CCCCN)NC(=O)[C@H](CCCNC(=N)N)NC(=O)C(C)(NC(=O)[C@H](CO)NC(=O)[C@H](CCCCN)NC(=O)[C@H](CCCNC(=N)N)NC(=O)[C@H](C)NC(=O)CNC(=O)[C@@H](NC(=O)[C@H](Cc1ccccc1)NC(=O)CNC(=O)CNC(=O)[C@@H](N)Cc1ccccc1)[C@@H](C)O)C(C)C)C(=O)N[C@@H](C)C(=O)N[C@@H](CC(N)=O)C(=O)N[C@@H](CCC(N)=O)C(N)=O (some centres not stated) [listing 1 of 3 here] | 93% and 86% |

Target: Nociceptin receptor (Mus musculus, UniProt P35377)
Test: as §1
Format: functional, tissue-based

Chain of Nociceptin receptor (P35377 whole entry): as above

| Compound | EC50 [nM] |
| --- | --- |
| CC(C)C[C@H](NC(=O)[C@H](CCCCN)NC(=O)[C@H](CCCNC(=N)N)NC(=O)[C@H](C)NC(=O)[C@H](CO)NC(=O)[C@H](CCCCN)NC(=O)[C@H](CCCNC(=N)N)NC(=O)C1(NC(=O)CNC(=O)[C@@H](NC(=O)[C@H](Cc2ccccc2)NC(=O)CNC(=O)CNC(=O)[C@@H](N)Cc2ccccc2)[C@@H](C)O)CCCC1)C(=O)N[C@@H](C)C(=O)N[C@@H](CC(N)=O)C(=O)N[C@@H](CCC(N)=O)C(N)=O | 25.1 |
| CC(C)C[C@H](NC(=O)[C@H](CCCCN)NC(=O)[C@H](CCCNC(=N)N)NC(=O)C(C)(CC(C)C)NC(=O)[C@H](CO)NC(=O)[C@H](CCCCN)NC(=O)[C@H](CCCNC(=N)N)NC(=O)[C@H](C)NC(=O)CNC(=O)[C@@H](NC(=O)[C@H](Cc1ccccc1)NC(=O)CNC(=O)CNC(=O)[C@@H](N)Cc1ccccc1)[C@@H](C)O)C(=O)N[C@@H](C)C(=O)N[C@@H](CC(N)=O)C(=O)N[C@@H](CCC(N)=O)C(N)=O (some centres not stated) | 13.5 |
| CC(C)C[C@H](NC(=O)[C@H](CCCCN)NC(=O)[C@H](CCCNC(=N)N)NC(=O)C(C)(NC(=O)[C@H](CO)NC(=O)[C@H](CCCCN)NC(=O)[C@H](CCCNC(=N)N)NC(=O)[C@H](C)NC(=O)CNC(=O)[C@@H](NC(=O)[C@H](Cc1ccccc1)NC(=O)CNC(=O)CNC(=O)[C@@H](N)Cc1ccccc1)[C@@H](C)O)C(C)C)C(=O)N[C@@H](C)C(=O)N[C@@H](CC(N)=O)C(=O)N[C@@H](CCC(N)=O)C(N)=O (some centres not stated) [listing 2 of 3 here] | 19.5 |
| CC(C)C[C@H](NC(=O)[C@H](CCCCN)NC(=O)[C@H](CCCNC(=N)N)NC(=O)C(C)(NC(=O)[C@H](CO)NC(=O)[C@H](CCCCN)NC(=O)[C@H](CCCNC(=N)N)NC(=O)[C@H](C)NC(=O)CNC(=O)[C@@H](NC(=O)[C@H](Cc1ccccc1)NC(=O)CNC(=O)CNC(=O)[C@@H](N)Cc1ccccc1)[C@@H](C)O)C(C)C)C(=O)N[C@@H](C)C(=O)N[C@@H](CC(N)=O)C(=O)N[C@@H](CCC(N)=O)C(N)=O (some centres not stated) [listing 3 of 3 here] | 14.8 |
| CC[C@](C)(NC(=O)CNC(=O)[C@@H](NC(=O)[C@H](Cc1ccccc1)NC(=O)CNC(=O)CNC(=O)[C@@H](N)Cc1ccccc1)[C@@H](C)O)C(=O)N[C@@H](CCCNC(=N)N)C(=O)N[C@@H](CCCCN)C(=O)N[C@@H](CO)C(=O)N[C@@H](C)C(=O)N[C@@H](CCCNC(=N)N)C(=O)N[C@@H](CCCCN)C(=O)N[C@@H](CC(C)C)C(=O)N[C@@H](C)C(=O)N[C@@H](CC(N)=O)C(=O)N[C@@H](CCC(N)=O)C(N)=O [listing 2 of 3 here] | 14.8 |
| CC(C)C[C@H](NC(=O)[C@H](CCCCN)NC(=O)[C@H](CCCNC(=N)N)NC(=O)[C@H](C)NC(=O)[C@H](CO)NC(=O)[C@H](CCCCN)NC(=O)[C@H](CCCNC(=N)N)NC(=O)C(C)(NC(=O)CNC(=O)[C@@H](NC(=O)[C@H](Cc1ccccc1)NC(=O)CNC(=O)CNC(=O)[C@@H](N)Cc1ccccc1)[C@@H](C)O)C(C)C)C(=O)N[C@@H](C)C(=O)N[C@@H](CC(N)=O)C(=O)N[C@@H](CCC(N)=O)C(N)=O (some centres not stated) [listing 1 of 2 here] | 27.5 |
| CC(C)C[C@H](NC(=O)[C@H](CCCCN)NC(=O)[C@H](CCCNC(=N)N)NC(=O)[C@H](C)NC(=O)[C@H](CO)NC(=O)[C@H](CCCCN)NC(=O)[C@H](CCCNC(=N)N)NC(=O)C(C)(CC(C)C)NC(=O)CNC(=O)[C@@H](NC(=O)[C@H](Cc1ccccc1)NC(=O)CNC(=O)CNC(=O)[C@@H](N)Cc1ccccc1)[C@@H](C)O)C(=O)N[C@@H](C)C(=O)N[C@@H](CC(N)=O)C(=O)N[C@@H](CCC(N)=O)C(N)=O (some centres not stated) [listing 1 of 2 here] | 46.8 |
| CC(C)C[C@H](NC(=O)[C@H](CCCCN)NC(=O)[C@H](CCCNC(=N)N)NC(=O)[C@H](C)NC(=O)[C@H](CO)NC(=O)[C@H](CCCCN)NC(=O)[C@H](CCCNC(=N)N)NC(=O)C(C)(NC(=O)CNC(=O)[C@@H](NC(=O)[C@H](Cc1ccccc1)NC(=O)CNC(=O)CNC(=O)[C@@H](N)Cc1ccccc1)[C@@H](C)O)C(C)C)C(=O)N[C@@H](C)C(=O)N[C@@H](CC(N)=O)C(=O)N[C@@H](CCC(N)=O)C(N)=O (some centres not stated) [listing 2 of 2 here] | 55 |
| CC[C@](C)(NC(=O)CNC(=O)[C@@H](NC(=O)[C@H](Cc1ccccc1)NC(=O)CNC(=O)CNC(=O)[C@@H](N)Cc1ccccc1)[C@@H](C)O)C(=O)N[C@@H](CCCNC(=N)N)C(=O)N[C@@H](CCCCN)C(=O)N[C@@H](CO)C(=O)N[C@@H](C)C(=O)N[C@@H](CCCNC(=N)N)C(=O)N[C@@H](CCCCN)C(=O)N[C@@H](CC(C)C)C(=O)N[C@@H](C)C(=O)N[C@@H](CC(N)=O)C(=O)N[C@@H](CCC(N)=O)C(N)=O [listing 3 of 3 here] | 24 |
| CC(C)C[C@H](NC(=O)[C@H](CCCCN)NC(=O)[C@H](CCCNC(=N)N)NC(=O)[C@H](C)NC(=O)[C@H](CO)NC(=O)[C@H](CCCCN)NC(=O)[C@H](CCCNC(=N)N)NC(=O)C(C)(CC(C)C)NC(=O)CNC(=O)[C@@H](NC(=O)[C@H](Cc1ccccc1)NC(=O)CNC(=O)CNC(=O)[C@@H](N)Cc1ccccc1)[C@@H](C)O)C(=O)N[C@@H](C)C(=O)N[C@@H](CC(N)=O)C(=O)N[C@@H](CCC(N)=O)C(N)=O (some centres not stated) [listing 2 of 2 here] | 75.9 |
